Measurements as given in US10280184B2, “Heterocyclic kinase inhibitors” (AbbVie Inc., priority 2014, dated 2019).
pIC50: −log10 of the molar value. Where a name gives a salt, the structure may show the parent alone.

target: BTK (Homo sapiens (Human), UniProt Q06187); experiment: In vitro BTK kinase activity measured by trFRET; format: biochemical; settings: recombinant human catalytic domain (aa 393-659), 0.01 mM ATP; read-out: Btk enzyme IC50
Protocol: In Vitro BTK Kinase Activity Measured by Time-Resolved Fluorescence Resonance Energy Transfer (trFRET)
The in-house BTK corresponds to recombinant human catalytic domain (aa 393-659), which was expressed in SF9 cells with an N-terminal his tag and purified by immobilized metal affinity chromatography. BTK was mixed with peptide substrate (biotin-TYR1, Sequence: Biotin-(Ahx)-GAEEEIYAAFFA-COOH, 0.4 μM final) at varying inhibitor concentrations in reaction buffer: 50 mM MOPSO pH 6.5, 10 mM MgCl2, 2 mM MnCl2, 2.5 mM DTT, 0.01% BSA, 0.1 mM Na3VO4 and 0.01 mM ATP. After about 60 min incubation at rt, the reaction was quenched by addition of EDTA (final concentration: 100 mM) and developed by addition of detection reagents (final approximate concentrations: 30 mM HEPES pH 7.0, 0.06% BSA, 0.006% Tween-20, 0.24 M KF, 80 ng/mL PT66K (europium labeled anti-phosphotyrosine antibody cat #61T66KLB Cisbio, Bedford, Mass.) and 0.6 μg/mL SAXL (Phycolink streptavidin-allophycocyanin acceptor, cat #PJ25S, Prozyme, San Leandro, Calif.). The developed reaction was incubated in the dark for about 60 min at rt, then read via a time-resolved fluorescence detector (Rubystar, BMG) using a 337 nm laser for excitation and monitoring emission wavelength at 665 nm. Within the linear range of the assay, the observed signal at 665 nm was directly related to phosphorylated product and can be used to calculate the IC50 values.

Chain of BTK (Q06187 393-659): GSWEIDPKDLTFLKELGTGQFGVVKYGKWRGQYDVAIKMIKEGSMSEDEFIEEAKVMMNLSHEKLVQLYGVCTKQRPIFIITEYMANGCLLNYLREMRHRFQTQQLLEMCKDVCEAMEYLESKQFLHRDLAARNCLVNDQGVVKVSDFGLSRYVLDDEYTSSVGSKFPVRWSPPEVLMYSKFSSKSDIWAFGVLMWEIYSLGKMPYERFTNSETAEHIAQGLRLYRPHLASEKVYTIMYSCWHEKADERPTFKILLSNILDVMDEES

SMILES	pIC50
C=CC(=O)N1CCC[C@H](c2cc(Nc3cc4n(n3)CCOC4)c3ncnn3c2)C1 (single isomer, unassigned) [Example 5]	> 7.00
C=CC(=O)N1CC[C@H](c2cn3ncnc3c(Nc3cnn(C)c3)n2)C1 (single isomer, unassigned) [Example 6]	> 7.00
C=CC(=O)N[C@@H]1CC[C@H](c2cc(Nc3ccn(C)n3)c3ncnn3c2)C1 (single isomer, unassigned) [Example 7]	> 7.00
C=CC(=O)N[C@@H]1CC[C@H](c2cc(Nc3cc4n(n3)CCOC4)c3ncnn3c2)C1 (single isomer, unassigned) [Example 8 (1R,3S)]	> 7.00
C=CC(=O)N[C@H]1CC[C@@H](c2cc(Nc3cc4n(n3)CCOC4)c3ncnn3c2)C1 (single isomer, unassigned) [Example 8 (1S,3R)]	> 7.00
C=CC(=O)N[C@@H]1CC[C@H](c2cc(Nc3ccc(N4CCOCC4)cn3)c3ncnn3c2)C1 (single isomer, unassigned) [Example 9 (1R,3S)]	> 7.00
C=CC(=O)N[C@H]1CC[C@@H](c2cc(Nc3ccc(N4CCOCC4)cn3)c3ncnn3c2)C1 (single isomer, unassigned) [Example 9 (1S,3R)]	6.00 to 7.00
C=CC(=O)N1CCC[C@@H](c2cc(Nc3cc4n(n3)CCOC4)c3ncnn3c2)C1 (single isomer, unassigned) [Example F1.24]	4.30 to 6.00
C=CC(=O)N1CC[C@@H](c2cn3ncnc3c(Nc3cnn(C)c3)n2)C1 (single isomer, unassigned) [Example F1.25]	4.30 to 6.00
C=CC(=O)NCc1cccc(-c2cn3ncnc3c(Nc3ccc(N4CCOCC4)cc3)n2)c1 [C.1.1]	4.30 to 6.00
C=CC(=O)N1CCC(c2cc(Nc3ccn(C)n3)c3ncnn3c2)C1 (stereo not shown) [Example 1, 1-(3-(8-((1-methyl-1H-pyrazol-3-yl)amino)-[1,2,4]triazolo[1,5-a]pyridin-6-yl)pyrrolidin-1-yl)prop-2-en-1-one]	> 7.00
C=CC(=O)N1CCC(c2cc(Nc3ccc(OC)nn3)c3ncnn3c2)C1 (stereo not shown) [Example 2, 1-(3-(8-(6-Methoxypyridazin-3-ylamino)-[1,2,4]triazolo[1,5-a]pyridin-6-yl)pyrrolidin-1-yl)prop-2-en-1-one trifluoroacetate]	6.00 to 7.00
C=CC(=O)N1CC[C@H](c2cc(Nc3cc4n(n3)CCOC4)c3ncnn3c2)C1 [Example 4, 1-{(R)-3-[8-(6,7-Dihydro-4H-pyrazolo[5,1-c][1,4]oxazin-2-ylamino)-[1,2,4]triazolo[1,5-a]pyridin-6-yl]-pyrrolidin-1-yl}-propenone]	> 7.00
C=CC(=O)N1CCCC(c2cc(Nc3cc4n(n3)CCOC4)c3ncnn3c2)C1 (stereo not shown) [Example F1.30, 1-(3-(8-((6,7-dihydro-4H-pyrazolo[5,1-c][1,4]oxazin-2-yl)amino)-[1,2,4]triazolo[1,5-a]pyridin-6-yl)piperidin-1-yl)prop-2-en-1-one]	6.00 to 7.00
C=CC(=O)N1CCCC(c2cc(Nc3nc(C(C)C)no3)c3ncnn3c2)C1 (stereo not shown) [Example F1.31, 1-(3-(8-((3-isopropyl-1,2,4-oxadiazol-5-yl)amino)-[1,2,4]triazolo[1,5-a]pyridin-6-yl)piperidin-1-yl)prop-2-en-1-one]	4.30 to 6.00
C=CC(=O)N1CCCC(c2cc(Nc3nc(C)no3)c3ncnn3c2)C1 (stereo not shown) [Example F1.32, 1-(3-(8-((3-methyl-1,2,4-oxadiazol-5-yl)amino)-[1,2,4]triazolo[1,5-a]pyridin-6-yl)piperidin-1-yl)prop-2-en-1-one]	4.30 to 6.00
C=CC(=O)N1CC[C@@H](c2cc(Nc3cc4n(n3)CCOC4)c3ncnn3c2)C1 [Example F1.33, (S)-1-(3-(8-((6,7-dihydro-4H-pyrazolo[5,1-c][1,4]oxazin-2-yl)amino)-[1,2,4]triazolo[1,5-a]pyridin-6-yl)pyrrolidin-1-yl)prop-2-en-1-one]	4.30 to 6.00
C=CC(=O)N[C@H]1CC[C@@H](c2cc(Nc3ccn(C)n3)c3ncnn3c2)C1 [Example F1.34]	6.00 to 7.00
C=CC(=O)N[C@@H]1CCC[C@H](c2cc(Nc3ccn(C)n3)c3ncnn3c2)C1 [Example F1.35]	> 7.00
C=CC(=O)N[C@H]1CCC[C@H](c2cc(Nc3ccn(C)n3)c3ncnn3c2)C1 [Example F1.36]	6.00 to 7.00
C=CC(=O)N1CC[C@@H](c2cc(Nc3ccn(C)n3)c3ncnn3c2)C1 [Example F1.37, (S)-1-(3-(8-((1-methyl-1H-pyrazol-3-yl)amino)-[1,2,4]triazolo[1,5-a]pyridin-6-yl)pyrrolidin-1-yl)prop-2-en-1-one]	4.30 to 6.00

Results, then the compound that gave them:

pIC50	SMILES
> 7.00	C=CS(=O)(=O)N1CC[C@H](c2cn3ncnc3c(Nc3ccc(OC)c(OC)c3)n2)C1 (single isomer, unassigned) [H.1]
> 7.00	C=CC(=O)N1CCC(c2cn3ncnc3c(Nc3ccc4c(c3)NC(=O)CCC4)n2)C1 (stereo not shown) [F.1, 8-((6-(1-acryloylpyrrolidin-3-yl)-[1,2,4]triazolo[1,5-a]pyrazin-8-yl)amino)-4,5-dihydro-1H-benzo[b]azepin-2(3H)-one]
6.00 to 7.00	C=CC(=O)NCc1cccc(-c2cn3ncnc3c(NC34CC(C3)C4)n2)c1 [F.1.1]
6.00 to 7.00	C=CC(=O)Nc1cccc(-c2cn3ncnc3c(NC34CC(C3)C4)n2)c1 [F.1.2]
4.30 to 6.00	C=CC(=O)Nc1ccccc1-c1cn2ncnc2c(NC23CC(C2)C3)n1 [F.1.3]
> 7.00	C=CC(=O)N1CCCC(c2cn3ncnc3c(Nc3ccc4c(c3)NC(=O)CCC4)n2)C1 (stereo not shown) [F.1.4, 8-((6-(1-acryloylpiperidin-3-yl)-[1,2,4]triazolo[1,5-a]pyrazin-8-yl)amino)-4,5-dihydro-1H-benzo[b]azepin-2(3H)-one]
> 7.00	C=CC(=O)Nc1cccc(-c2cn3ncnc3c(Nc3ccc4c(c3)NC(=O)CCC4)n2)c1 [F.1.5, N-(3-(8-((2-oxo-2,3,4,5-tetrahydro-1H-benzo[b]azepin-8-yl)amino)-[1,2,4]triazolo[1,5-a]pyrazin-6-yl)phenyl)acrylamide]
6.00 to 7.00	C=CC(=O)N1CCC(c2cn3ncnc3c(Nc3ccc(OC)c(OC)c3)n2)C1 (stereo not shown) [F.1.8]
> 7.00	C=CC(=O)N1CC[C@@H](c2cn3ccnc3c(Nc3ccc4c(c3)NC(=O)CCC4)n2)C1 [F.1.9, (R)-8-((6-(1-acryloylpyrrolidin-3-yl)imidazo[1,2-a]pyrazin-8-yl)amino)-4,5-dihydro-1H-benzo[b]azepin-2(3H)-one]
6.00 to 7.00	C=CC(=O)N1CC[C@H](c2cn3ccnc3c(Nc3ccc4c(c3)NC(=O)CCC4)n2)C1 [F.1.10, (S)-8-((6-(1-acryloylpyrrolidin-3-yl)imidazo[1,2-a]pyrazin-8-yl)amino)-4,5-dihydro-1H-benzo[b]azepin-2(3H)-one]
6.00 to 7.00	C=CC(=O)N1CC[C@H](c2cn3ncnc3c(Nc3ccc(OC)c(OC)c3)n2)C1 [F.1.11]
6.00 to 7.00	C=CC(=O)N1CCC(c2cn3ncnc3c(Nc3ccc4c(c3)NC(=O)CC4)n2)C1 (stereo not shown) [F.1.13, 7-((6-(1-acryloylpyrrolidin-3-yl)-[1,2,4]triazolo[1,5-a]pyrazin-8-yl)amino)-3,4-dihydroquinolin-2(1H)-one]
6.00 to 7.00	C=CC(=O)N1CCC(c2cc(Nc3ccc4c(c3)NC(=O)CCC4)c3ncnn3c2)C1 (stereo not shown) [F.1.15, 8-((6-(1-acryloylpyrrolidin-3-yl)-[1,2,4]triazolo[1,5-a]pyridin-8-yl)amino)-4,5-dihydro-1H-benzo[b]azepin-2(3H)-one]
